US20040006077A1, “Thiazine and oxazine derivatives as MMP-13 inhibitors” (priority 2002, published 2004)

How the values were obtained:
Type in all cases: biochemical
[1] = biological target: T1, catalytic domain of human MMP-13 (Homo sapiens, UniProt P45452); experiment: Inhibition of proteolysis of thioester peptide substrate by MMP-13; conditions: peptide substrate Ac-Pro-Leu-Gly-thioester-Leu-Leu-Gly-OEt 100 μM, pH 7.0, absorbance at 405 nm
T1 construct: 2.5 nM of the catalytic domain of human MMP-13
Protocol: (§1) The inhibitory activity of the compounds of formula (I) according to the invention with respect to matrix metalloprotease-13 is evaluated by testing the ability of the compounds of the invention to inhibit the proteolysis of a peptide substrate with MMP-13.
(§2) The peptide substrate used in the test is the following peptide: Ac-Pro-Leu-Gly-thioester-Leu-Leu-Gly-OEt.
The inhibitory activity of a compound of formula (I) according to the invention is expressed as the IC50 value, which is the concentration of inhibitor for which an inhibition of 50% of the activity of the matrix metalloprotease under consideration is observed.
To carry out this test, a reaction medium of 100 μt volume is prepared, containing: 50 mM of HEPES buffer, 10 mM of CaCl2 and 1 mM of 5,5′-dithiobis-(2-nitrobenzoic acid) (DTNB), and 100 μM of substrate, the pH being adjusted to 7.0.
Increasing concentrations of the inhibitory compound present in a 2.0% DMSO solution and 2.5 nM of the catalytic domain of human MMP-13 are added to the test samples.
(§3) The concentrations of inhibitors present in the test samples range from 100 μM to 0.5 nM. The measurement of the proteolysis of the substrate peptide is monitored by measuring the absorbance at 405 nm using a spectrophotometer for reading microplates, at the laboratory temperature, the measurements being carried out continuously for 10 to 15 minutes.
The IC50 values are calculated from a curve in which the percentage of the catalytic activity relative to the control is represented on the X-axis and the concentration of inhibitor is represented on the Y-axis.

MMP-3 = MMP-3 (Homo sapiens, UniProt P08254); experiment: MMP-13 test adapted to MMP-3
Chain of MMP-3 (P08254 100-477, species assumed): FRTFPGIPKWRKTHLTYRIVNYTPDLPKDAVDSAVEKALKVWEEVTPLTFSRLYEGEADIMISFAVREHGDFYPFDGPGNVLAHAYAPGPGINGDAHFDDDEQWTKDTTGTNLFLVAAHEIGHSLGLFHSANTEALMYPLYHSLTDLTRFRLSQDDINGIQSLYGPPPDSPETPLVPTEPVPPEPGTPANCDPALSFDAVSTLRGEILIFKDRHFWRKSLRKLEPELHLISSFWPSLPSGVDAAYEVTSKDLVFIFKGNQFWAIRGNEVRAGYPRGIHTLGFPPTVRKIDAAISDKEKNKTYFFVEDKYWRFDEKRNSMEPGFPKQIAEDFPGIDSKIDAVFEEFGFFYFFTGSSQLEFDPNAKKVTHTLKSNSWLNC
Protocol: as §1, §2
(§4) The inhibitory activity of a compound of formula (I) according to the invention is expressed as the IC50 value, which is the concentration of inhibitor for which an inhibition of 50% of the activity of the matrix metalloprotease under consideration is observed. […]
as §3
(§5) The IC50 values are calculated from a curve in which the percentage of the catalytic activity relative to the control is represented on the X-axis and the concentration of inhibitor is represented on the Y-axis. […]

MMP-7 = biological target: T2, MMP-7 (Homo sapiens, UniProt P09237); experiment: MMP-13 test adapted to MMP-7
T2 sequence (P09237 95-267): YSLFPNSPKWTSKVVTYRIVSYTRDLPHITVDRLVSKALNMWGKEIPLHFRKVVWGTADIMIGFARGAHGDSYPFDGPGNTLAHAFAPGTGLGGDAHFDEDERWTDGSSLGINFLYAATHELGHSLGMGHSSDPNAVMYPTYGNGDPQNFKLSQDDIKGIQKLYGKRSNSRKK
Protocol: as §1, §2, §4, §3, §5

MMP-1 = biological target: T3, MMP-1 (Homo sapiens, UniProt P03956); experiment: MMP-13 test adapted to MMP-1
T3 sequence (P03956 100-469): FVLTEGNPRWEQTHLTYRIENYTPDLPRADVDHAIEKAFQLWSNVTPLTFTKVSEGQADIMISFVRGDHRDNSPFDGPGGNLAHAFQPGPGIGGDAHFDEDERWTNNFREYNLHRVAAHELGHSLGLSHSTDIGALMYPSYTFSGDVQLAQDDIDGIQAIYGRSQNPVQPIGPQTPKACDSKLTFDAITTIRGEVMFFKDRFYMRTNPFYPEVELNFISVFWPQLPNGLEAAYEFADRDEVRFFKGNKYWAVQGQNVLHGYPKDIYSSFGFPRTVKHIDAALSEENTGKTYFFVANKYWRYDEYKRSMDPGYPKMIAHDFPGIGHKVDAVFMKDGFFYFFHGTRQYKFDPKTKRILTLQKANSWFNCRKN

| IC50 [1] | IC50 (MMP-3) | IC50 (MMP-7) | IC50 (MMP-1) | SMILES |
| --- | --- | --- | --- | --- |
| 0.0012 µM | – | – | – | O=C(O)c1ccc(Cn2c(=O)sc3ccc(C#CCc4ccccc4)cc3c2=O)cc1 [Example 3, 4-[2,4-Dioxo-6-(3-phenyl-prop-1ynyl)-4H-1,3-benzothiazin-3-ylmethyl]-benzoic acid] |
| 0.063 µM | – | – | – | COc1ccc(CNC(=O)c2ccc3oc(=O)n(Cc4ccc(OC)cc4)c(=O)c3c2)cc1 [Example 2] |
| 0.037 µM | 18 µM | 30 µM | 30 µM | COc1ccc(CNC(=O)c2ccc3sc(=O)n(Cc4ccccc4)c(=O)c3c2)cc1 [Example 1, 3-Benzyl-2,4-dioxo-3,4-dihydro-2H-benz[e][1,3]thiazine-6-carboxylic acid 4-methoxy benzylamide] |
